PubChem BioAssay AID2060892 (Molecular Pharmacology Branch, DTP, NCI, 2025)

Test system: HOP-62 complex spheroids with HUVEC/MSC, viability
Experiment: Anticancer human tumor HOP-62 cell line growth inhibition [RAS];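 note: spheroids exposed to agents for seven days before readout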;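 for viability, T/C: 100% = DMSO vehicle control viability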
Details: for IC50: curve of first compound; for viability, T/C: stronger effect = lower value
Outline: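 Multi-cell-type spheroids: tumor cells plus HUVEC endothelial cells and mesenchymal stem cells. RAS-pathway inhibitors were combined with targeted agents, each dosed in half-log steps down from clinical Cmax, or from 10 microM when Cmax was unknown.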

## CC1(C)CCC(Nc2ncc(C(F)(F)F)c(-c3c[nH]c4c(P(C)(C)=O)c(C#N)ccc34)n2)CN1 (stereo unspecified) + C#Cc1c(F)ccc2cc(O)cc(-c3ncc4c(N5CC6CCC(C5)N6)nc(OCC56CCCN5CC(F)C6)nc4c3F)c12
Second compound 0.0316 µM
  IC50: 2.01 nM
Second compound 0.1 µM
  IC50: 1.73 nM
Second compound 0.316 µM
  IC50: 2.05 nM
Second compound 1 µM
  IC50: 1.8 nM
Second compound 3.16 µM
  IC50: 1.33 nM
Second compound 10 µM
  IC50: < 0.949 nM
Second compound 0.0316 µM, first compound 0.000949 µM
  viability, T/C: 76.3%
Second compound 0.0316 µM, first compound 0.003 µM
  viability, T/C: 35.9%
Second compound 0.0316 µM, first compound 0.00949 µM
  viability, T/C: 22.1%
Second compound 0.0316 µM, first compound 0.03 µM
  viability, T/C: 24.1%
Second compound 0.0316 µM, first compound 0.0949 µM
  viability, T/C: 27.6%
Second compound 0.0316 µM, first compound 0.3 µM
  viability, T/C: 25.8%
Second compound 0.1 µM, first compound 0.000949 µM
  viability, T/C: 72.1%
Second compound 0.1 µM, first compound 0.003 µM
  viability, T/C: 30.1%
Second compound 0.1 µM, first compound 0.00949 µM
  viability, T/C: 23.6%
Second compound 0.1 µM, first compound 0.03 µM
  viability, T/C: 24%
Second compound 0.1 µM, first compound 0.0949 µM
  viability, T/C: 25.8%
Second compound 0.1 µM, first compound 0.3 µM
  viability, T/C: 28.5%
Second compound 0.316 µM, first compound 0.000949 µM
  viability, T/C: 73.2%
Second compound 0.316 µM, first compound 0.003 µM
  viability, T/C: 38.5%
Second compound 0.316 µM, first compound 0.00949 µM
  viability, T/C: 21%
Second compound 0.316 µM, first compound 0.03 µM
  viability, T/C: 21.6%
Second compound 0.316 µM, first compound 0.0949 µM
  viability, T/C: 26%
Second compound 0.316 µM, first compound 0.3 µM
  viability, T/C: 29.3%
Second compound 1 µM, first compound 0.000949 µM
  viability, T/C: 75.3%
Second compound 1 µM, first compound 0.003 µM
  viability, T/C: 29.9%
Second compound 1 µM, first compound 0.00949 µM
  viability, T/C: 23.4%
Second compound 1 µM, first compound 0.03 µM
  viability, T/C: 25%
Second compound 1 µM, first compound 0.0949 µM
  viability, T/C: 26%
Second compound 1 µM, first compound 0.3 µM
  viability, T/C: 25.2%
Second compound 3.16 µM, first compound 0.000949 µM
  viability, T/C: 57.4%
Second compound 3.16 µM, first compound 0.003 µM
  viability, T/C: 32.1%
Second compound 3.16 µM, first compound 0.00949 µM
  viability, T/C: 26.4%
Second compound 3.16 µM, first compound 0.03 µM
  viability, T/C: 24.7%
Second compound 3.16 µM, first compound 0.0949 µM
  viability, T/C: 27.8%
Second compound 3.16 µM, first compound 0.3 µM
  viability, T/C: 26.4%
Second compound 10 µM, first compound 0.000949 µM
  viability, T/C: 47.8%
Second compound 10 µM, first compound 0.003 µM
  viability, T/C: 30.8%
Second compound 10 µM, first compound 0.00949 µM
  viability, T/C: 29.3%
Second compound 10 µM, first compound 0.03 µM
  viability, T/C: 28.3%
Second compound 10 µM, first compound 0.0949 µM
  viability, T/C: 31%
Second compound 10 µM, first compound 0.3 µM
  viability, T/C: 33.9%

## Cc1nc(N2CCC3(CC2)COC(C)C3N)c(CO)nc1Sc1ccnc(N)c1Cl (stereo unspecified) + C=CC(=O)N1CCN(c2nc(OCC3CCCN3C)nc3c(F)c(-c4nc(N)cc(C)c4C(F)(F)F)c(Cl)cc23)C(C)C1
Second compound 0.00316 µM
  IC50: 138 nM
Second compound 0.01 µM
  IC50: 72 nM
Second compound 0.0316 µM
  IC50: 43.9 nM
Second compound 0.1 µM
  IC50: 52 nM
Second compound 0.316 µM
  IC50: 56.7 nM
Second compound 1 µM
  IC50: < 31.6 nM
Second compound 0.00316 µM, first compound 0.0316 µM
  viability, T/C: 68.6%
Second compound 0.00316 µM, first compound 0.1 µM
  viability, T/C: 52.6%
Second compound 0.00316 µM, first compound 0.316 µM
  viability, T/C: 40.3%
Second compound 0.00316 µM, first compound 1 µM
  viability, T/C: 28.7%
Second compound 0.00316 µM, first compound 3.16 µM
  viability, T/C: 14.1%
Second compound 0.00316 µM, first compound 10 µM
  viability, T/C: 13.8%
Second compound 0.01 µM, first compound 0.0316 µM
  viability, T/C: 58.6%
Second compound 0.01 µM, first compound 0.1 µM
  viability, T/C: 46.1%
Second compound 0.01 µM, first compound 0.316 µM
  viability, T/C: 32.8%
Second compound 0.01 µM, first compound 1 µM
  viability, T/C: 21.3%
Second compound 0.01 µM, first compound 3.16 µM
  viability, T/C: 10.6%
Second compound 0.01 µM, first compound 10 µM
  viability, T/C: 8.87%
Second compound 0.0316 µM, first compound 0.0316 µM
  viability, T/C: 52%
Second compound 0.0316 µM, first compound 0.1 µM
  viability, T/C: 44.8%
Second compound 0.0316 µM, first compound 0.316 µM
  viability, T/C: 30.5%
Second compound 0.0316 µM, first compound 1 µM
  viability, T/C: 17.4%
Second compound 0.0316 µM, first compound 3.16 µM
  viability, T/C: 13.7%
Second compound 0.0316 µM, first compound 10 µM
  viability, T/C: 9.06%
Second compound 0.1 µM, first compound 0.0316 µM
  viability, T/C: 56.5%
Second compound 0.1 µM, first compound 0.1 µM
  viability, T/C: 41.5%
Second compound 0.1 µM, first compound 0.316 µM
  viability, T/C: 29.1%
Second compound 0.1 µM, first compound 1 µM
  viability, T/C: 19.5%
Second compound 0.1 µM, first compound 3.16 µM
  viability, T/C: 10.4%
Second compound 0.1 µM, first compound 10 µM
  viability, T/C: 9.33%
Second compound 0.316 µM, first compound 0.0316 µM
  viability, T/C: 54.8%
Second compound 0.316 µM, first compound 0.1 µM
  viability, T/C: 44.8%
Second compound 0.316 µM, first compound 0.316 µM
  viability, T/C: 31.1%
Second compound 0.316 µM, first compound 1 µM
  viability, T/C: 15.5%
Second compound 0.316 µM, first compound 3.16 µM
  viability, T/C: 12.1%
Second compound 0.316 µM, first compound 10 µM
  viability, T/C: 10.7%
Second compound 1 µM, first compound 0.0316 µM
  viability, T/C: 49.6%
Second compound 1 µM, first compound 0.1 µM
  viability, T/C: 37.8%
Second compound 1 µM, first compound 0.316 µM
  viability, T/C: 26.1%
Second compound 1 µM, first compound 1 µM
  viability, T/C: 15.1%
Second compound 1 µM, first compound 3.16 µM
  viability, T/C: 11.7%
Second compound 1 µM, first compound 10 µM
  viability, T/C: 8.55%

## CC(Nc1ccc2c(c1)OCCn1cc(N3C(=O)OCC3C(F)F)nc1-2)C(N)=O (stereo unspecified) + CCn1c(-c2cccnc2C(C)OC)c2c3cc(ccc31)N1CCOC(CC(NC(=O)C(C(C)C)N(C)C(=O)C3(F)CCN(C(=O)C#CC(C)(C)N(C)C)CC3)C(=O)N3CCCC(N3)C(=O)OCC(C)(C)C2)C1
Second compound 0.000949 µM
  IC50: 659 nM
Second compound 0.003 µM
  IC50: 649 nM
Second compound 0.00949 µM
  IC50: 326 nM
Second compound 0.03 µM
  IC50: 260 nM
Second compound 0.0949 µM
  IC50: 182 nM
Second compound 0.3 µM
  IC50: 152 nM
Second compound 0.000949 µM, first compound 0.0316 µM
  viability, T/C: 99.7%
Second compound 0.000949 µM, first compound 0.1 µM
  viability, T/C: 75.4%
Second compound 0.000949 µM, first compound 0.316 µM
  viability, T/C: 45.1%
Second compound 0.000949 µM, first compound 1 µM
  viability, T/C: 54.2%
Second compound 0.000949 µM, first compound 3.16 µM
  viability, T/C: 50.6%
Second compound 0.000949 µM, first compound 10 µM
  viability, T/C: 23.9%
Second compound 0.003 µM, first compound 0.0316 µM
  viability, T/C: 87%
Second compound 0.003 µM, first compound 0.1 µM
  viability, T/C: 85.9%
Second compound 0.003 µM, first compound 0.316 µM
  viability, T/C: 42.3%
Second compound 0.003 µM, first compound 1 µM
  viability, T/C: 50.9%
Second compound 0.003 µM, first compound 3.16 µM
  viability, T/C: 36.6%
Second compound 0.003 µM, first compound 10 µM
  viability, T/C: 19.6%
Second compound 0.00949 µM, first compound 0.0316 µM
  viability, T/C: 99.3%
Second compound 0.00949 µM, first compound 0.1 µM
  viability, T/C: 60.1%
Second compound 0.00949 µM, first compound 0.316 µM
  viability, T/C: 51.9%
Second compound 0.00949 µM, first compound 1 µM
  viability, T/C: 46.9%
Second compound 0.00949 µM, first compound 3.16 µM
  viability, T/C: 32.1%
Second compound 0.00949 µM, first compound 10 µM
  viability, T/C: 22.4%
Second compound 0.03 µM, first compound 0.0316 µM
  viability, T/C: 124%
Second compound 0.03 µM, first compound 0.1 µM
  viability, T/C: 59.4%
Second compound 0.03 µM, first compound 0.316 µM
  viability, T/C: 55.2%
Second compound 0.03 µM, first compound 1 µM
  viability, T/C: 42.3%
Second compound 0.03 µM, first compound 3.16 µM
  viability, T/C: 25.6%
Second compound 0.03 µM, first compound 10 µM
  viability, T/C: 22.8%
Second compound 0.0949 µM, first compound 0.0316 µM
  viability, T/C: 103%
Second compound 0.0949 µM, first compound 0.1 µM
  viability, T/C: 53.9%
Second compound 0.0949 µM, first compound 0.316 µM
  viability, T/C: 43.9%
Second compound 0.0949 µM, first compound 1 µM
  viability, T/C: 37%
Second compound 0.0949 µM, first compound 3.16 µM
  viability, T/C: 20.1%
Second compound 0.0949 µM, first compound 10 µM
  viability, T/C: 19%
Second compound 0.3 µM, first compound 0.0316 µM
  viability, T/C: 58.5%
Second compound 0.3 µM, first compound 0.1 µM
  viability, T/C: 49.8%
Second compound 0.3 µM, first compound 0.316 µM
  viability, T/C: 47.9%
Second compound 0.3 µM, first compound 1 µM
  viability, T/C: 30.2%
Second compound 0.3 µM, first compound 3.16 µM
  viability, T/C: 25.2%
Second compound 0.3 µM, first compound 10 µM
  viability, T/C: 19.1%
